Reference: article PMC6858373 (Scientific Reports, 2019)
Read-outs that look alike come from different tables or passages of the source.

How the values were obtained:
[1] = target: T1, FGF14:Nav1.6 C-tail complex (Homo sapiens, UniProt Q92915+Q9UQD0); test: Split-luciferase complementation assay (LCA) in Clone V double stable HEK293 cells; format: cell-based; details: for Split Luciferase Assay Z-score Set 1 / Split Luciferase Assay Z-score Set 2: normalized to on-plate 0.3% DMSO controls; for Z-score (LCA primary screening): 30 µM, average of primary screening (n = 2), vs on-plate 0.3% DMSO; for IMin (% Luminescence): antagonists, normalized to DMSO
T1 construct: polymerase chain reaction (PCR) amplification of the FGF14 open reading frame (nt 1–855); C-terminal fragment of Nav1.6 (amino acids 1763–1976) fused with CD4ΔC-tail (amino acids 1–395); expressed in transfected cells

[2] = target: full-length P. pyralis luciferase (Photinus pyralis, UniProt P08659, K549A/L550V/N119G/N50D/S548I); format: cell-based; details: CC_NCI screening, normalized to on-plate 0.3% DMSO controls; for Luciferase Assay % Lum: full-length luciferase counter-screen luminescence; for Luciferase Assay Z-score: full-length luciferase counter-screen
Clone V cells = test: CellTiter Blue (CTB) cell viability counter-screen; details: CC_NCI screening, normalized to on-plate 0.3% DMSO controls; for Toxicity Assay % Fluor: CTB cell viability fluorescence; for Toxicity Assay Z-score: CTB cell viability
[3] = CC_NCI screening, LCA luminescence, biological replicate Set 1, normalized to on-plate 0.3% DMSO controls (n=16 per plate)
[4] = CC_NCI screening, LCA luminescence, biological replicate Set 2, normalized to on-plate 0.3% DMSO controls (n=16 per plate)
[5] = CC_NCI screening, LCA, biological replicate Set 1
[6] = CC_NCI screening, LCA, biological replicate Set 2
[7] = CC_NCI screening, average of Set 1 and Set 2, normalized to 0.3% DMSO controls

Sequence of full-length P. pyralis luciferase (P08659 whole entry N50D/N119G/S548I/K549A/L550V, looked up): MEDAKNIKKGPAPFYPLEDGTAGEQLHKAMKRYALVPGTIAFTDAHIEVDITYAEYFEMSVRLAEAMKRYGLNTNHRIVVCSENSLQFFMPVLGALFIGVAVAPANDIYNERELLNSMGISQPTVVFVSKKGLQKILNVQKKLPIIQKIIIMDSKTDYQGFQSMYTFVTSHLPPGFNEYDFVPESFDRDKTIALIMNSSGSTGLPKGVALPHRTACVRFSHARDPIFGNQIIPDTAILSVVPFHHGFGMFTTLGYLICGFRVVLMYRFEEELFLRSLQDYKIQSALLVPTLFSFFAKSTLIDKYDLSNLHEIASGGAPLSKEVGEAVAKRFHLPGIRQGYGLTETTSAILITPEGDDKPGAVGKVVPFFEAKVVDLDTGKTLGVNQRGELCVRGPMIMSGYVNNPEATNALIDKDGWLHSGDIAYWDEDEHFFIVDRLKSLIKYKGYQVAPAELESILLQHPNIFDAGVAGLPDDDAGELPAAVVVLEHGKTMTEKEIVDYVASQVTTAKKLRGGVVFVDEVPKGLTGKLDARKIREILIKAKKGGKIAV
T1 sequence (Q92915 1-252 isoform Q92915-2): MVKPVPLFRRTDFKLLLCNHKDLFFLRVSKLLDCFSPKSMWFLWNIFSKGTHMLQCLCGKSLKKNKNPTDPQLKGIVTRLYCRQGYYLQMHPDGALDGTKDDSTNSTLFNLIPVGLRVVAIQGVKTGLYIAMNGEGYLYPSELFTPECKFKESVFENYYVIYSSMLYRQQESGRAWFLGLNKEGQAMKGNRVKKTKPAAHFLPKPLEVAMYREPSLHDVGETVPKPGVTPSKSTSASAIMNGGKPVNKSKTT
T1 sequence (Q9UQD0 1763-1976 limits assumed): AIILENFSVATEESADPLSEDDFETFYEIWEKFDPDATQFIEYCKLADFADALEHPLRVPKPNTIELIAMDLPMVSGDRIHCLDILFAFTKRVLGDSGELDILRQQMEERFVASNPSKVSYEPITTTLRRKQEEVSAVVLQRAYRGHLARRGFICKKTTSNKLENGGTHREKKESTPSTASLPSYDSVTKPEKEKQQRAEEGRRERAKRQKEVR

| SMILES | Split Luciferase Assay % Lum Set 1 [1, 3] | Split Luciferase Assay %Lum Set 2 [1, 4] | Split Luciferase Assay Z-score Set 1 [1, 5] | Split Luciferase Assay Z-score Set 2 [1, 6] | Split Luciferase Assay %Lum Avg [1, 7] | Luciferase Assay % Lum [2] | Luciferase Assay Z-score [2] | Toxicity Assay % Fluor (Clone V cells) | Toxicity Assay Z-score (Clone V cells) | also measured |
| --- | --- | --- | --- | --- | --- | --- | --- | --- | --- | --- |
| CO[C@H]1C[C@@H]2CC[C@@H](C)[C@@](O)(O2)C(=O)C(=O)N2CCCC[C@H]2C(=O)O[C@H]([C@H](C)C[C@@H]2CC[C@@H](OCCO)[C@H](OC)C2)CC(=O)[C@H](C)/C=C(\C)[C@@H](O)[C@@H](OC)C(=O)[C@H](C)C[C@H](C)/C=C/C=C/C=C/1C [Everolimus] | 76.42% | 84.27% | -1.91 | -1.28 | 80.34% | 72.79% | -3.48 | 91.22% | -1.23 |  |
| C[C@]1(c2nc3c(C(N)=O)cccc3[nH]2)CCCN1 [ABT-888] | 75.34% | 93.63% | -1.99 | -0.52 | 84.48% | 105.22% | 0.67 | 107.03% | 0.98 |  |
| C[C@]12O[C@H](C[C@]1(O)CO)n1c3ccccc3c3c4c(c5c6ccccc6n2c5c31)CNC4=O [Lestaurtinib, reference compound] | 50.33% | 40.57% | -4.01 | -4.84 | 45.45% | 87.58% | -1.59 | 90.16% |  | Z-score (LCA primary screening) ([1]; 384-well): −4.42; dose-response behavior of repurchased compounds ([1]; 10-point dose response 0.25-50 µM, Clone V cells): purely inhibitory effects; IC50 ([1]; IC50 (µM), estimated, 8-point dose response 0.25-30 µM, n = 4 per concentration, library compounds): 1.22 µM; IMin (% Luminescence) ([1]; Clone V cells, 384-well): 45.45 % Luminescence; action toward the FGF14:Nav1.6 C-tail interaction ([1]; dose-dependency validation using fresh compound samples): acted as antagonists; IC50 ([1]; in-cell IC50, repurchased compounds, 10-point dose response 0.25-50 µM, n = 8 per concentration, Clone V cells, 384-well): 0.95 µM |
| O=C(NOCC1CC1)c1ccc(F)c(F)c1Nc1ccc(I)cc1Cl [CI 1040, reference compound] | 50.33% | 42.65% | -4.01 | -4.67 | 46.49% | 103.28% | 0.42 | 85.93% | -1.97 | Z-score (LCA primary screening) ([1]; 384-well): −4.34; IMin (% Luminescence) ([1]; Clone V cells, 384-well): 46.49 % Luminescence; IC50 ([1]; estimated, 8-point dose response 0.25-30 µM, n = 4 per concentration, library compounds, read-out: IC50): 14.8 µM |
| COc1cc(Nc2c(C#N)cnc3cc(OCCCN4CCN(C)CC4)c(OC)cc23)c(Cl)cc1Cl [BOSUTINIB] |  | 94.67% | 0.73 | -0.43 | 101.85% | 108.17% | 1.05 | 88.31% | -1.63 |  |
| C#CCC(Cc1cnc2nc(N)nc(N)c2n1)c1ccc(C(=O)N[C@@H](CCC(=O)O)C(=O)O)cc1 (stereo partly shown) [Pralatrexate] | 117.73% | 106.11% | 1.43 | 0.50 | 111.92% | 103.37% | 0.43 | 96.60% | -0.47 |  |
| C=C1C[C@@H]2[C@H](CC[C@]3(C)C(=O)CC[C@@H]23)[C@@]2(C)C=CC(=O)C=C12 [Exemestane] |  |  | 0.73 | -0.26 |  | 90.38% | -1.23 | 91.81% | -1.14 | Split Luciferase Assay % Lum Set 1 [1]: 109.04%; Split Luciferase Assay %Lum Avg [1]: 102.89%; Split Luciferase Assay %Lum Set 2 [1]: 96.75% |
| Cc1nc2c(O)cccc2c(=O)[nH]1 [NU 1025] |  |  |  |  |  |  |  |  |  | Split Luciferase Assay Z-score Set 1 ([1]; CC_NCI screening, biological replicate Set 1): -0.32; Split Luciferase Assay % Lum Set 1 ([1]; CC_NCI screening, biological replicate Set 1, normalized to on-plate 0.3% DMSO controls (n=16 per plate)): 95.99%; Split Luciferase Assay Z-score Set 2 ([1]; CC_NCI screening, biological replicate Set 2): -4.33; Split Luciferase Assay %Lum Set 2 ([1]; CC_NCI screening, biological replicate Set 2, normalized to on-plate 0.3% DMSO controls (n=16 per plate)): 46.81%; Split Luciferase Assay %Lum Avg ([1]; average of Set 1 and Set 2, normalized to 0.3% DMSO controls): 71.40%; Luciferase Assay % Lum (full-length luciferase counter-screen) [2]: 89.72%; Luciferase Assay Z-score (full-length luciferase counter-screen) [2]: -1.32; Toxicity Assay % Fluor (CTB cell viability fluorescence) (Clone V cells): 111.16%; Toxicity Assay Z-score (CTB cell viability) (Clone V cells): 1.56 |
| CCCS(=O)(=O)Nc1ccc(F)c(C(=O)c2c[nH]c3ncc(-c4ccc(Cl)cc4)cc23)c1F [Vemurafenib] | 104.69% | 105.07% | 0.38 | 0.41 | 104.88% | 93.28% | -0.86 | 86.56% | -1.88 |  |
| Cc1ccc(F)c(NC(=O)Nc2ccc(-c3cccc4[nH]nc(N)c34)cc2)c1 [ABT-869] | 14.46% | 21.85% | -6.91 | -6.36 | 18.15% | 60.04% | -5.12 | 87.41% | -1.76 |  |
| CN(C)C/C=C/C(=O)Nc1cc2c(Nc3ccc(F)c(Cl)c3)ncnc2cc1O[C@H]1CCOC1 [BIBW2992] | 70.99% | 94.67% | -2.34 | -0.43 | 82.83% | 76.41% | -3.02 | 100.79% | 0.11 |  |
| CO[C@H]1C[C@@H]2CC[C@@H](C)[C@@](O)(O2)C(=O)C(=O)N2CCCC[C@H]2C(=O)O[C@H]([C@H](C)C[C@@H]2CC[C@@H](O)[C@H](OC)C2)CC(=O)[C@H](C)/C=C(\C)[C@@H](O)[C@@H](OC)C(=O)[C@H](C)C[C@H](C)/C=C/C=C/C=C/1C [RAPAMYCIN] | 95.99% | 74.90% | -0.32 | -2.04 | 85.45% | 77.09% | -2.93 | 110.83% | 1.51 |  |
| Nc1nc2[nH]cc(CCc3ccc(C(=O)N[C@@H](CCC(=O)O)C(=O)O)cc3)c2c(=O)[nH]1 [Pemetrexed] | 112.30% | 110.27% | 0.99 | 0.84 | 111.29% | 94.26% | -0.73 | 94.67% | -0.74 |  |
